Patent US20200370087A1, “METHOD FOR DETERMINING MICROBIAL SUSCEPTIBILITY TO ANTIBIOTIC AGENTS” (Ascilion AB, priority 2017, published 2020)

How the values were obtained:
[1] = tested on: Staphylococcus aureus (ATCC 29213); assay: Glucose consumption susceptibility test, blood culture diluted in MHB with glucose (Example 1); format: cell-based; parameters: glucose concentration, t = 0 / glucose concentration, t = 60 / glucose concentration, t = 120 / glucose concentration, t = 180 / glucose concentration, t = 240 / dC/dT (rate of change in glucose concentration): unit not given here; conditions: for F = the rate of change in glucose concentration in relation to the reference / dC/dT (rate of change in glucose concentration) / glucose concentration, t = 0 / glucose concentration, t = 60 / glucose concentration, t = 120 / glucose concentration, t = 180 / glucose concentration, t = 240: S. aureus; for glucose concentration, t = 0: 0 minutes; for glucose concentration, t = 60: 60 minutes; for glucose concentration, t = 120: 120 minutes; for glucose concentration, t = 180: 180 minutes; for glucose concentration, t = 240: 240 minutes
Summary of the method: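 Glucose was measured by glucometer at 0, 60, 120, 180 and 240 min after 1:100 dilution of positive blood culture in cation-adjusted MHB containing 1.0 mg/mL glucose.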

E. coli 17 = assay: Qualitative glucose consumption test, bacteria from plated cultures (Example 2, Table 6); format: cell-based; conditions: E. coli 17 from plated culture, antibiotic 256 μg/mL
Method: (§1) If the susceptibility score is a qualitative susceptibility score classifying the microorganism as “susceptible”, or “non-susceptible” to an antibiotic agent the answer could be given in as little as 1 hour. Bacteria from plated cultures were suspended in cation adjusted Mueller-Hinton broth (SVA, Uppsala, Sweden) supplemented with glucose. Consequently, the concentration of microorgansims was typically two orders of magnitude higher as compared to Example 1. […] The tested microorganisms was one strain of E. faecium, two strains of E. coli and one S. aureus.

E. coli ATCC 25922 [2] = assay: as above; format: cell-based; conditions: E. coli ATCC 25922 from plated culture, antibiotic 256 μg/mL
Method: as §1

E. faecium = assay: as above; format: cell-based; conditions: E. faecium from plated culture, antibiotic 256 μg/mL
Method: as §1

S. aureus = assay: as above; format: cell-based; conditions: S. aureus from plated culture, antibiotic 256 μg/mL
Method: If the susceptibility score is a qualitative susceptibility score classifying the microorganism as “susceptible”, or “non-susceptible” to an antibiotic agent the answer could be given in as little as 1 hour.
Bacteria from plated cultures were suspended in cation adjusted Mueller-Hinton broth (SVA, Uppsala, Sweden) supplemented with glucose. Consequently, the concentration of microorgansims was typically two orders of magnitude higher as compared to Example 1. […] The tested microorganisms was one strain of E. faecium, two strains of E. coli and one S. aureus.

E. coli ATCC 25922 [3] = assay: Qualitative glucose consumption test, directly from positive BC-bottles (Example 2, Table 7); format: cell-based; conditions: E. coli ATCC 25922 from positive BC-bottle, antibiotic 256 μg/mL
[4] = tested on: Escherichia coli ATCC 25922; conditions: E.coli, cited from earlier work
[5] = tested on: Enterococcus faecalis ATCC 29212; conditions: E.faecalis, cited from earlier work
[6] = tested on: Staphylococcus aureus ATCC 29213; conditions: S.aureus, cited from earlier work
[7] = range obtained by EUCAST from ISO 20776-1: 2006
[8] = reference value, Mueller-Hinton agar, incubation 18±2 h, N/A = not susceptible

## gentamicin
[1]; antibiotic 0.25 μg/mL
  F = the rate of change in glucose concentration in relation to the reference: 66%
  dC/dT (rate of change in glucose concentration): 22
  glucose concentration, t = 0: 143
  glucose concentration, t = 60: 146
  glucose concentration, t = 120: 140
  glucose concentration, t = 180: 102
  glucose concentration, t = 240: 55
[1]; antibiotic 0.5 μg/mL
  F = the rate of change in glucose concentration in relation to the reference: 57%
  dC/dT (rate of change in glucose concentration): 19
  glucose concentration, t = 0: 143
  glucose concentration, t = 60: 154
  glucose concentration, t = 120: 137
  glucose concentration, t = 180: 116
  glucose concentration, t = 240: 78
[1]; antibiotic 1 μg/mL
  F = the rate of change in glucose concentration in relation to the reference: 30%
  dC/dT (rate of change in glucose concentration): 10
  glucose concentration, t = 0: 137
  glucose concentration, t = 60: 154
  glucose concentration, t = 120: 146
  glucose concentration, t = 180: 134
  glucose concentration, t = 240: 119
[1]; antibiotic 2 μg/mL
  F = the rate of change in glucose concentration in relation to the reference: 12%
  dC/dT (rate of change in glucose concentration): 4
  glucose concentration, t = 0: 144
  glucose concentration, t = 60: 154
  glucose concentration, t = 180: 146
  glucose concentration, t = 240: 148
[1]; antibiotic 4 μg/mL
  F = the rate of change in glucose concentration in relation to the reference: 10%
  dC/dT (rate of change in glucose concentration): 4
  glucose concentration, t = 60: 157
  glucose concentration, t = 120: 147
  glucose concentration, t = 180: 150
  glucose concentration, t = 240: 149
[1]; antibiotic 8 μg/mL
  F = the rate of change in glucose concentration in relation to the reference: 0%
  dC/dT (rate of change in glucose concentration): 0
  glucose concentration, t = 0: 142
  glucose concentration, t = 60: 154
  glucose concentration, t = 120: 150
  glucose concentration, t = 180: 154
  glucose concentration, t = 240: 140
[1]; antibiotic 16 μg/mL
  F = the rate of change in glucose concentration in relation to the reference: 0%
  dC/dT (rate of change in glucose concentration): 0
  glucose concentration, t = 0: 139
  glucose concentration, t = 60: 145
  glucose concentration, t = 120: 150
  glucose concentration, t = 180: 145
  glucose concentration, t = 240: 145
[1]; antibiotic 32 μg/mL
  F = the rate of change in glucose concentration in relation to the reference: 3%
  dC/dT (rate of change in glucose concentration): 1
  glucose concentration, t = 0: 144
  glucose concentration, t = 60: 148
  glucose concentration, t = 120: 145
  glucose concentration, t = 180: 146
  glucose concentration, t = 240: 145
[1]; S.aureus, 80% threshold of reference rate of change, 60 to 180 minutes
  MIC, Measured: 0.25 µg/mL
E. coli 17
  qualitative susceptibility score: susceptible
E. coli 17; t = 15
  glucose concentration, t = 15: 131
E. coli 17; t = 30
  glucose concentration, t = 30: 126
E. coli 17; t = 45
  glucose concentration, t = 45: 123
E. coli ATCC 25922 [2]
  qualitative susceptibility score: susceptible
E. coli ATCC 25922 [2]; t = 15
  glucose concentration, t = 15: 156
E. coli ATCC 25922 [2]; t = 30
  glucose concentration, t = 30: 155
E. coli ATCC 25922 [2]; t = 45
  glucose concentration, t = 45: 136
E. faecium
  qualitative susceptibility score: non-susceptible
E. faecium; t = 0
  glucose concentration, t = 0: 79
E. faecium; t = 15
  glucose concentration, t = 15: 47
S. aureus
  qualitative susceptibility score: susceptible
S. aureus; t = 15
  glucose concentration, t = 15: 137
S. aureus; t = 30
  glucose concentration, t = 30: 139
S. aureus; t = 45
  glucose concentration, t = 45: 131
E. coli ATCC 25922 [3]; t = 0
  glucose concentration, t = 0: 145
E. coli ATCC 25922 [3]; t = 45
  glucose concentration, t = 45: 155
E. coli ATCC 25922 [3]; t = 60
  glucose concentration, t = 60: 151
E. coli ATCC 25922 [3]; t = 90
  glucose concentration, t = 90: 140
E. coli ATCC 25922 [3]; t = 105
  glucose concentration, t = 105: 135
E. coli ATCC 25922 [3]; within 2 hours
  qualitative susceptibility score: susceptible
[4]; [7]
  MIC, EUCAST, range in parentheses: (0.25-1) ug/mL
[4]; [8]
  MIC, EUCAST: 0.5 µg/mL
[5]; [7]
  MIC, EUCAST, range in parentheses: (4-16) ug/mL
[5]; [8]
  MIC, EUCAST: 8 µg/mL
[6]; [7]
  MIC, EUCAST, range in parentheses: (0.125-1) ug/mL
[6]; reference value, Mueller-Hinton agar, incubation 18±2 h
  MIC, EUCAST: 0.25 to 0.5 µg/mL
